Measurements reported in the supplement of paper PMC11451515.

System: SEM cells
Experiment: cell viability relative to DMSO control; higher = less cytotoxic
Conditions: 48 h
Summary of the method: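 Three leukemia lines were tested: NOMO1 and SEM at 500 cells/well and P12-Ichikawa at 1000 cells/well. Each was adapted for at least four passages in each medium and seeded in 5 μl in 1536-well plates, and library compounds in DMSO were pin-dosed from 47 μM to 0.79 nM in 11 threefold steps. After 48 h at 37°C, CellTiter-Glo One luminescence was read. Viability is a percentage relative to DMSO wells on each plate, with cell-free wells as background.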

[1] = HPLM + 10% dialyzed FBS, 0.000781 µM
[2] = HPLM + 10% dialyzed FBS, 0.00234 µM
[3] = HPLM + 10% dialyzed FBS, 0.00702 µM
[4] = HPLM + 10% dialyzed FBS, 0.0211 µM
[5] = HPLM + 10% dialyzed FBS, 0.0632 µM
[6] = HPLM + 10% dialyzed FBS, 0.19 µM
[7] = HPLM + 10% dialyzed FBS, 0.569 µM
[8] = HPLM + 10% dialyzed FBS, 1.71 µM
[9] = HPLM + 10% dialyzed FBS, 5.12 µM
[10] = HPLM + 10% dialyzed FBS, 15.4 µM
[11] = HPLM + 10% dialyzed FBS, 46.1 µM
[12] = RPMI 5 mM glucose + 10% FBS, 0.000781 µM
[13] = RPMI 5 mM glucose + 10% FBS, 0.00234 µM
[14] = RPMI 5 mM glucose + 10% FBS, 0.00702 µM
[15] = RPMI 5 mM glucose + 10% FBS, 0.0211 µM
[16] = RPMI 5 mM glucose + 10% FBS, 0.0632 µM
[17] = RPMI 5 mM glucose + 10% FBS, 0.19 µM
[18] = RPMI 5 mM glucose + 10% FBS, 0.569 µM
[19] = RPMI 5 mM glucose + 10% FBS, 1.71 µM
[20] = RPMI 5 mM glucose + 10% FBS, 5.12 µM
[21] = RPMI 5 mM glucose + 10% FBS, 15.4 µM
[22] = RPMI 5 mM glucose + 10% FBS, 46.1 µM
[23] = RPMI 5 mM glucose + 10% dialyzed FBS, 0.000781 µM
[24] = RPMI 5 mM glucose + 10% dialyzed FBS, 0.00234 µM
[25] = RPMI 5 mM glucose + 10% dialyzed FBS, 0.00702 µM
[26] = RPMI 5 mM glucose + 10% dialyzed FBS, 0.0211 µM
[27] = RPMI 5 mM glucose + 10% dialyzed FBS, 0.0632 µM
[28] = RPMI 5 mM glucose + 10% dialyzed FBS, 0.19 µM
[29] = RPMI 5 mM glucose + 10% dialyzed FBS, 0.569 µM
[30] = RPMI 5 mM glucose + 10% dialyzed FBS, 1.71 µM
[31] = RPMI 5 mM glucose + 10% dialyzed FBS, 5.12 µM
[32] = RPMI 5 mM glucose + 10% dialyzed FBS, 15.4 µM
[33] = RPMI 5 mM glucose + 10% dialyzed FBS, 46.1 µM

Row | SMILES | cell viability [1] | cell viability [2] | cell viability [3] | cell viability [4] | cell viability [5] | cell viability [6] | cell viability [7] | cell viability [8] | cell viability [9] | cell viability [10] | cell viability [11] | cell viability [12] | cell viability [13] | cell viability [14] | cell viability [15] | cell viability [16] | cell viability [17] | cell viability [18] | cell viability [19] | cell viability [20] | cell viability [21] | cell viability [22] | cell viability [23] | cell viability [24] | cell viability [25] | cell viability [26] | cell viability [27] | cell viability [28] | cell viability [29] | cell viability [30] | cell viability [31] | cell viability [32] | cell viability [33]
1 | O=C(Nc1c[nH]nc1-c1nc2cc(CN3CCOCC3)ccc2[nH]1)NC1CC1 | 92.3% | 85.9% | 103% | 87.9% | 40.6% | 45.9% | 26% | 16% | 6.08% | 3.77% | 2.78% | 96.7% | 90% | 107% | 101% | 22.7% | 22.5% | 17.1% | 10.4% | 3.98% | 2.18% | 2.92% | 95.1% | 93.5% | 110% | 77.2% | 26.9% | 26.8% | 22% | 11.7% | 4.09% | 2.03% | 3.29%
2 | O=C(CCCCCCC(=O)Nc1cccnc1)NO | 78.3% | 106% | 96.7% | 97.2% | 114% | 104% | 108% | 88.5% | 76.8% | 17.6% | 6.38% | 101% | 105% | 102% | 106% | 101% | 115% | 97.5% | 77.2% | 81.7% | 11.9% | 5.78% | 87.8% | 93.6% | 89.2% | 101% | 95.5% | 99% | 105% | 81.9% | 64% | 13.5% | 6.39%
3 | CCOC(=O)C(C#N)C\1C2=CC(=CC=C2O\C(=C1C(=O)OCC)N)Br (stereo not drawn) | 93.4% | 102% | 117% | 49.8% | 113% | 99.9% | 99.5% | 105% | 95.1% | 86.1% | 63.8% | 113% | 116% | 114% | 44.5% | 116% | 117% | 113% | 113% | 101% | 98% | 57.6% | 84.8% | 99.1% | 103% | 49.8% | 108% | 99.1% | 83.6% | 105% | 87.2% | 82.3% | 55.2%
4 | O=C(NCCCCN1CCOCC1)c1cc2ccccc2o1 |  |  |  |  |  |  |  |  |  |  |  | 102% | 122% | 112% | 123% | 121% | 114% | 96.6% | 93.6% | 99.9% | 92.8% | 98.4% |  |  |  |  |  |  |  |  |  |  | 
5 | CC[N+](CC)(CC)CCOc1cccc(OCC[N+](CC)(CC)CC)c1OCC[N+](CC)(CC)CC |  |  |  |  |  |  |  |  |  |  |  | 134% | 118% | 124% | 110% | 123% | 131% | 116% | 119% | 126% | 123% | 111% | 117% | 137% | 121% | 112% | 144% | 144% | 122% | 115% | 128% | 122% | 128%
6 | C[C@]12Cc3cn[nH]c3C[C@@H]1CC[C@@H]1[C@@H]2CC[C@@]2(C)[C@H]1CC[C@]2(C)O | 108% | 105% | 105% | 79.7% | 100% | 88.6% | 83.6% | 75.8% | 90.4% | 97.4% | 88.1% | 102% | 108% | 104% | 119% | 116% | 104% | 118% | 104% | 99.4% | 114% | 101% | 103% | 94.9% | 106% | 123% | 110% | 103% | 108% | 107% | 111% | 105% | 95.8%
7 | CC[C@]12CC[C@H]3[C@@H](CCC/4=C/C(=O)CC[C@H]34)[C@@H]1CC[C@@]2(O)C#C | 93.7% | 79.6% | 97.7% | 92.4% | 103% | 83.1% | 87.8% | 77.9% | 83.6% | 80.9% | 82.8% | 85.7% | 102% | 102% | 109% | 108% | 85.2% | 86.9% | 86.5% | 97.9% | 87.4% | 96.5% | 103% | 90.3% | 81.9% | 102% | 101% | 96.8% | 101% | 114% | 94.8% | 111% | 105%
